In the kinase profiling compilation of Christmann-Franck et al. (2016):

What was measured:
Test in all cases: radiometric filter-binding kinase assay, Kinase HotSpot
Conditions in all cases: compound 0.5 µM; ATP 10 µM
CAMK1G (human) = CAMK1G (human) (UniProt Q96NX5)
MAP4K5 (human) = MAP4K5 (human) (UniProt Q9Y4K4)
FRK (human) = FRK (human) (UniProt P42685)
PDGFRB (human) = PDGFRB (human) (UniProt P09619)
MST4 (human) = MST4 (human) (UniProt Q9P289)
RPS6KA6 KD1 KD2 (human) = RPS6KA6 KD1 KD2 (human) (UniProt Q9UK32)
STK11 (human) = STK11 (human) (UniProt Q15831)
RIPK2 (human) = RIPK2 (human) (UniProt O43353)
AURKC (human) = AURKC (human) (UniProt Q9UQB9)
MINK1 (human) = MINK1 (human) (UniProt Q8N4C8)
PTK2 (human) = PTK2 (human) (UniProt Q05397)
PAK2 (human) = PAK2 (human) (UniProt Q13177)
DSTYK (human) = DSTYK (human) (UniProt Q6XUX3)
IGF1R (human) = IGF1R (human) (UniProt P08069)
PRKCD (human) = PRKCD (human) (UniProt Q05655)
MAPKAPK5 (human) = MAPKAPK5 (human) (UniProt Q8IW41)
LCK (human) = LCK (human) (UniProt P06239)
PRKX (human) = PRKX (human) (UniProt P51817)
PDPK1 (human) = PDPK1 (human) (UniProt O15530)
MARK4 (human) = MARK4 (human) (UniProt Q96L34)
RPS6KA5 KD2 (human) = RPS6KA5 KD2 (human) (UniProt O75582)
MAPK13 (human) = MAPK13 (human) (UniProt O15264)
PLK3 (human) = PLK3 (human) (UniProt Q9H4B4)
EPHB2 (human) = EPHB2 (human) (UniProt P29323)
DYRK4 (human) = DYRK4 (human) (UniProt Q9NR20)
MAP3K2 (human) = MAP3K2 (human) (UniProt Q9Y2U5)
TSSK2 (human) = TSSK2 (human) (UniProt Q96PF2)
CDC42BPB (human) = CDC42BPB (human) (UniProt Q9Y5S2)
IKBKB (human) = IKBKB (human) (UniProt O14920)
MAP3K3 (human) = MAP3K3 (human) (UniProt Q99759)
GSK3B (human) = GSK3B (human) (UniProt P49841)
ZAP70 (human) = ZAP70 (human) (UniProt P43403)
TAOK2 (human) = TAOK2 (human) (UniProt Q9UL54)
MERTK (human) = MERTK (human) (UniProt Q12866)
RET (human) = RET (human) (UniProt P07949)
TXK (human) = TXK (human) (UniProt P42681)
LIMK1 (human) = LIMK1 (human) (UniProt P53667)
BTK (human) = BTK (human) (UniProt Q06187)
CLK1 (human) = CLK1 (human) (UniProt P49759)
PRKCZ (human) = PRKCZ (human) (UniProt Q05513)
MAP3K7 TAB1 (human) = MAP3K7 TAB1 (human) (UniProt O43318+Q15750)
TGFBR1 (human) = TGFBR1 (human) (UniProt P36897)

MERTK (human), sequence (Q12866 whole entry, looked up): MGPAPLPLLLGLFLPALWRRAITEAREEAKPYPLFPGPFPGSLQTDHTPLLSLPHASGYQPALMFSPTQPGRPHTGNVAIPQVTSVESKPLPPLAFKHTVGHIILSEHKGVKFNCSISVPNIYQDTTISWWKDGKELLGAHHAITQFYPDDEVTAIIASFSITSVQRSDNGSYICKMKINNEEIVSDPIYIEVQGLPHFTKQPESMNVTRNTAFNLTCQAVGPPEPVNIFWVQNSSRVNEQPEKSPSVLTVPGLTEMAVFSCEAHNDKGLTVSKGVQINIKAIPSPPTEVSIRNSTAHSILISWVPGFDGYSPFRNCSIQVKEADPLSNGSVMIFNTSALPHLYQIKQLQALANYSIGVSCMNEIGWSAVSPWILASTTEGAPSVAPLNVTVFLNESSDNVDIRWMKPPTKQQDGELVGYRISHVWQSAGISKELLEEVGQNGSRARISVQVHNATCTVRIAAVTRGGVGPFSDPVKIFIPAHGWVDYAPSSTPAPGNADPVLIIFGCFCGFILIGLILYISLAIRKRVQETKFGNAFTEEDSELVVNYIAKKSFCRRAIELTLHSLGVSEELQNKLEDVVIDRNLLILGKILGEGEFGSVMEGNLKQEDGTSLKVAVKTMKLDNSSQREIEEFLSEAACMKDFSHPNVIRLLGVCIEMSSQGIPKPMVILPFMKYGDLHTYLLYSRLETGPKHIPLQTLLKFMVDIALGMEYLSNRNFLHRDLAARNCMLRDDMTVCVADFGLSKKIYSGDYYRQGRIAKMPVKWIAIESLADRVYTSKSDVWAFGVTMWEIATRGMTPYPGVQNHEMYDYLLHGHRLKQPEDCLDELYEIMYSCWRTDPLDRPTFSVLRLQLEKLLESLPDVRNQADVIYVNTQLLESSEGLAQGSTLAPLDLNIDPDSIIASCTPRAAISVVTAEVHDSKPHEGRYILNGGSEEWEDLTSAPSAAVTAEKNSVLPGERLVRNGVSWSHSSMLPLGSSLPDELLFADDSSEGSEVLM
MAPKAPK5 (human), sequence (Q8IW41 whole entry, looked up): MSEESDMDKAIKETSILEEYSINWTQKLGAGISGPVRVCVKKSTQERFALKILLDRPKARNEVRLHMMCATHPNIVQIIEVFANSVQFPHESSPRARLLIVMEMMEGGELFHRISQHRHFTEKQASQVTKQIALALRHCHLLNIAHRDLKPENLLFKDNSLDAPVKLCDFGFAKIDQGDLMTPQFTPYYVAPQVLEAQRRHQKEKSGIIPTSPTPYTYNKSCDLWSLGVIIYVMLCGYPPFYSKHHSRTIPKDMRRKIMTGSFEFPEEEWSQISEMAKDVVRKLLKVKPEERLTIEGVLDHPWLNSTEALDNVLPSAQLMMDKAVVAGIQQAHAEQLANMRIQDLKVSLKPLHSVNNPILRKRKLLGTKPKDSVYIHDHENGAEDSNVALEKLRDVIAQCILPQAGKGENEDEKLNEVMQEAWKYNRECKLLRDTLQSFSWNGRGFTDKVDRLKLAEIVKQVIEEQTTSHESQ
RET (human), sequence (P07949 whole entry, looked up): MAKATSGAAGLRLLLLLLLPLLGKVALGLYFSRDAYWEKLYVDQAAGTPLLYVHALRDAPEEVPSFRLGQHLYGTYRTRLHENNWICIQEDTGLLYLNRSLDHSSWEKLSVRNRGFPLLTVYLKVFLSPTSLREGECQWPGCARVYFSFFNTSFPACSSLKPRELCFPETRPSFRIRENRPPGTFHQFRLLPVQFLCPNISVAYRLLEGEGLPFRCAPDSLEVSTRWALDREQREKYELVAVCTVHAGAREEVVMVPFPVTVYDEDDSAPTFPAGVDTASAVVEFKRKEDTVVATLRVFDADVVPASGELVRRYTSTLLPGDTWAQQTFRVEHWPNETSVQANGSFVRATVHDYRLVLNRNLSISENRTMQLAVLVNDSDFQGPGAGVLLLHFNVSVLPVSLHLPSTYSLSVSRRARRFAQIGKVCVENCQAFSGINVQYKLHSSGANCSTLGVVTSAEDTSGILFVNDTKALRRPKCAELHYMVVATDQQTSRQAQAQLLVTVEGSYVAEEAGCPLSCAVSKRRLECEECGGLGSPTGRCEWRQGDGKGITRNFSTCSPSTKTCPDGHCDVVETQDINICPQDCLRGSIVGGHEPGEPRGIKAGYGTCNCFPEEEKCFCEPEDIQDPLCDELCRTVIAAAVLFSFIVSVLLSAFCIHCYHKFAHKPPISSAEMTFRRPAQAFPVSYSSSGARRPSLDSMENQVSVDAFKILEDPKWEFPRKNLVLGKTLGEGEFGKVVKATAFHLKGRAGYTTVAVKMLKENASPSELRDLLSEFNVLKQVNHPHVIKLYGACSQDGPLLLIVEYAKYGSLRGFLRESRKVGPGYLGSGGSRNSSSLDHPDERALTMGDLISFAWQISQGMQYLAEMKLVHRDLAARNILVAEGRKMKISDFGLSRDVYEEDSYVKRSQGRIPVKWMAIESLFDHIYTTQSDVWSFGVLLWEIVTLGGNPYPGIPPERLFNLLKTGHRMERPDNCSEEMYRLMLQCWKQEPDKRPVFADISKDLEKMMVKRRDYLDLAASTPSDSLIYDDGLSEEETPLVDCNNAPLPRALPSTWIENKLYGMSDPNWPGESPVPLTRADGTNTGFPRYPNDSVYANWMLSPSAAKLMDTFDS
PRKX (human), sequence (P51817 whole entry, looked up): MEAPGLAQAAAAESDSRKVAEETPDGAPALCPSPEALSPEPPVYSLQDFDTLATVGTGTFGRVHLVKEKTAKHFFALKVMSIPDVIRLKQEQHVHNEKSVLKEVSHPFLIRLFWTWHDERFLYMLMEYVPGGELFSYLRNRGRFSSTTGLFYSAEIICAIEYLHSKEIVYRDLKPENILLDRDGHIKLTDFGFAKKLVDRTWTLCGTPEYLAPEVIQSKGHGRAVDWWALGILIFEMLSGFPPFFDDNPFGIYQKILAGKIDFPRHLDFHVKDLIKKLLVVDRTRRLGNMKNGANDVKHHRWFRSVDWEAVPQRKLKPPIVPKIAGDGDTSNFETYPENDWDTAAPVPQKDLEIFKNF
MST4 (human), sequence (Q9P289 whole entry, looked up): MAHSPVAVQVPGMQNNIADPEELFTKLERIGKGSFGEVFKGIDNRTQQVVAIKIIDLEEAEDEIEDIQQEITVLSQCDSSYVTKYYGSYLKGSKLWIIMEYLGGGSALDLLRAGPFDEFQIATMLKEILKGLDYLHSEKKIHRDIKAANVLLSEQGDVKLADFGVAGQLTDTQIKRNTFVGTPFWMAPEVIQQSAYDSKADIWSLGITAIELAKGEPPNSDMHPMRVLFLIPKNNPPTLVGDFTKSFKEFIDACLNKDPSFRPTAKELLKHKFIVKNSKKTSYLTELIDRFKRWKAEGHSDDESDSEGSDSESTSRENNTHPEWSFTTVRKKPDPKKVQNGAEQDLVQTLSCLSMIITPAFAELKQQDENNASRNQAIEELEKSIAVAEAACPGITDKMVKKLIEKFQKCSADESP
CLK1 (human), sequence (P49759 whole entry, looked up): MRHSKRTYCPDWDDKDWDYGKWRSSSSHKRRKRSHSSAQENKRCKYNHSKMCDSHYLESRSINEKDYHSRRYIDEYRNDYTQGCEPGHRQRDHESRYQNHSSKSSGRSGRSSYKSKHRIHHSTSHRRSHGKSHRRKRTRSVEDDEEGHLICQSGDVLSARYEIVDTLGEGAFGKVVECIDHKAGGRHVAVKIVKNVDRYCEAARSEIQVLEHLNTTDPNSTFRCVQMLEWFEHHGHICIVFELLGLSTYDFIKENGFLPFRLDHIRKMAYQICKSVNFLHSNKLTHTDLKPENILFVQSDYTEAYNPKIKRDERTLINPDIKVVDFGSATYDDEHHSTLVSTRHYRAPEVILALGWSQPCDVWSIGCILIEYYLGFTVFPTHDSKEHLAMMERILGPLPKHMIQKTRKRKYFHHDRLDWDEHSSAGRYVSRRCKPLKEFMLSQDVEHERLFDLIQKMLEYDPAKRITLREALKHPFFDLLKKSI
DSTYK (human), sequence (Q6XUX3 whole entry, looked up): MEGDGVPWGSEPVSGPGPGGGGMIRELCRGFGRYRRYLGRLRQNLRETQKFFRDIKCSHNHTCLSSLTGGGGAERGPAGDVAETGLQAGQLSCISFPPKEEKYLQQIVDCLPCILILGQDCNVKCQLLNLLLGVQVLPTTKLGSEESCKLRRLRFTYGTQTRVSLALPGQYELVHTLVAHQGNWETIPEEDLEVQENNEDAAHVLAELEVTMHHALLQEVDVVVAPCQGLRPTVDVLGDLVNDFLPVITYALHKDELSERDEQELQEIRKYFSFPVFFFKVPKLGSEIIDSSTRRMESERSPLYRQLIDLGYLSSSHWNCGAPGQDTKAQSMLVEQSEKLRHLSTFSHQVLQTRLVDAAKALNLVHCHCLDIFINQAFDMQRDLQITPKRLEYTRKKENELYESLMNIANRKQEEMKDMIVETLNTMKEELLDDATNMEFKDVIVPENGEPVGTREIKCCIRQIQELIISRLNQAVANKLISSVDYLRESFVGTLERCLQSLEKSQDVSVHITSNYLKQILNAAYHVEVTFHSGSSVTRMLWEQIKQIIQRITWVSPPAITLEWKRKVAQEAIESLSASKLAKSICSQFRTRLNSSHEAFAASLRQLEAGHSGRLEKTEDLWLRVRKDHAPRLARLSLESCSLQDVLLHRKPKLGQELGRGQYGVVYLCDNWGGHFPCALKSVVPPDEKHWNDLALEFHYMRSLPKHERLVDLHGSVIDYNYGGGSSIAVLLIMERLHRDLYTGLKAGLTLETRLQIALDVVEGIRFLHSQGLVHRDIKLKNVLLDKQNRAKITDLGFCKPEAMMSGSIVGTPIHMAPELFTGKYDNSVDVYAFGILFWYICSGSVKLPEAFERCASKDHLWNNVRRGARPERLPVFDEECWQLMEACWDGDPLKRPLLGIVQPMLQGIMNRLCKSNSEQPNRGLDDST

Cc1cccc(-c2nc(C(C)(C)C)[nH]c2-c2ccc3c(c2)OCO3)n1
residual activity (CAMK1G (human)): 98.7%
residual activity (MAP4K5 (human)): 99.2%
residual activity (FRK (human)): 98.8%
residual activity (PDGFRB (human)): 106%
residual activity (MST4 (human)): 95.5%
residual activity (RPS6KA6 KD1 KD2 (human)): 107%
residual activity (STK11 (human)): 91.3%
residual activity (RIPK2 (human)): 79%
residual activity (AURKC (human)): 91.4%
residual activity (MINK1 (human)): 98.4%
residual activity (PTK2 (human)): 98.1%
residual activity (PAK2 (human)): 72.4%
residual activity (DSTYK (human)): 89.1%
residual activity (IGF1R (human)): 96.2%
residual activity (PRKCD (human)): 104%
residual activity (MAPKAPK5 (human)): 96.1%
residual activity (LCK (human)): 97.9%
residual activity (PRKX (human)): 95%
residual activity (PDPK1 (human)): 89.8%
residual activity (MARK4 (human)): 99.7%
residual activity (RPS6KA5 KD2 (human)): 97.5%
residual activity (MAPK13 (human)): 107%
residual activity (PLK3 (human)): 95.6%
residual activity (EPHB2 (human)): 93%
residual activity (DYRK4 (human)): 89.7%
residual activity (MAP3K2 (human)): 99.9%
residual activity (TSSK2 (human)): 92.7%
residual activity (CDC42BPB (human)): 102%
residual activity (IKBKB (human)): 105%
residual activity (MAP3K3 (human)): 120%
residual activity (GSK3B (human)): 96.8%
residual activity (ZAP70 (human)): 106%
residual activity (TAOK2 (human)): 87.6%
residual activity (MERTK (human)): 82%
residual activity (RET (human)): 103%
residual activity (TXK (human)): 100%
residual activity (LIMK1 (human)): 86.2%
residual activity (BTK (human)): 118%
residual activity (CLK1 (human)): 98%
residual activity (PRKCZ (human)): 87.9%
residual activity (MAP3K7 TAB1 (human)): 96.3%
residual activity (TGFBR1 (human)): 35.8%

Ic1cccc(CSc2nnc(-c3ccncc3)o2)c1
residual activity (CAMK1G (human)): 95.9%
residual activity (MAP4K5 (human)): 99.5%
residual activity (FRK (human)): 85.5%
residual activity (PDGFRB (human)): 97.7%
residual activity (MST4 (human)): 103%
residual activity (RPS6KA6 KD1 KD2 (human)): 103%
residual activity (STK11 (human)): 103%
residual activity (RIPK2 (human)): 86.3%
residual activity (AURKC (human)): 91.2%
residual activity (MINK1 (human)): 90.2%
residual activity (PTK2 (human)): 106%
residual activity (PAK2 (human)): 97.6%
residual activity (DSTYK (human)): 94.8%
residual activity (IGF1R (human)): 99.1%
residual activity (PRKCD (human)): 83.7%
residual activity (MAPKAPK5 (human)): 83.6%
residual activity (LCK (human)): 98.5%
residual activity (PRKX (human)): 78.2%
residual activity (PDPK1 (human)): 98.3%
residual activity (MARK4 (human)): 86.8%
residual activity (RPS6KA5 KD2 (human)): 97.2%
residual activity (MAPK13 (human)): 93.8%
residual activity (PLK3 (human)): 96.1%
residual activity (EPHB2 (human)): 87.7%
residual activity (DYRK4 (human)): 98.5%
residual activity (MAP3K2 (human)): 106%
residual activity (TSSK2 (human)): 110%
residual activity (CDC42BPB (human)): 96.6%
residual activity (IKBKB (human)): 89.3%
residual activity (MAP3K3 (human)): 89.6%
residual activity (GSK3B (human)): 59.8%
residual activity (ZAP70 (human)): 107%
residual activity (TAOK2 (human)): 105%
residual activity (MERTK (human)): 96.4%
residual activity (RET (human)): 103%
residual activity (TXK (human)): 96.8%
residual activity (LIMK1 (human)): 85.8%
residual activity (BTK (human)): 95.6%
residual activity (CLK1 (human)): 99.8%
residual activity (PRKCZ (human)): 96.1%
residual activity (MAP3K7 TAB1 (human)): 102%
residual activity (TGFBR1 (human)): 94.4%

CCCCc1c(-c2ccc(OC)cc2)[nH]c2nccnc12
residual activity (CAMK1G (human)): 102%
residual activity (MAP4K5 (human)): 63.8%
residual activity (FRK (human)): 86.5%
residual activity (PDGFRB (human)): 95.9%
residual activity (MST4 (human)): 75.8%
residual activity (RPS6KA6 KD1 KD2 (human)): 78.2%
residual activity (STK11 (human)): 74.5%
residual activity (RIPK2 (human)): 71%
residual activity (AURKC (human)): 55.8%
residual activity (MINK1 (human)): 84.4%
residual activity (PTK2 (human)): 81.7%
residual activity (PAK2 (human)): 97.5%
residual activity (DSTYK (human)): 97.6%
residual activity (IGF1R (human)): 83.9%
residual activity (PRKCD (human)): 92.8%
residual activity (MAPKAPK5 (human)): 95.3%
residual activity (LCK (human)): 85%
residual activity (PRKX (human)): 102%
residual activity (PDPK1 (human)): 102%
residual activity (MARK4 (human)): 88.3%
residual activity (RPS6KA5 KD2 (human)): 104%
residual activity (MAPK13 (human)): 99.1%
residual activity (PLK3 (human)): 91.5%
residual activity (EPHB2 (human)): 88.8%
residual activity (DYRK4 (human)): 97.7%
residual activity (MAP3K2 (human)): 90.9%
residual activity (TSSK2 (human)): 93.7%
residual activity (CDC42BPB (human)): 92.5%
residual activity (IKBKB (human)): 102%
residual activity (MAP3K3 (human)): 99.8%
residual activity (GSK3B (human)): 70.2%
residual activity (ZAP70 (human)): 74.2%
residual activity (TAOK2 (human)): 90.1%
residual activity (MERTK (human)): 92.6%
residual activity (RET (human)): 56.3%
residual activity (TXK (human)): 72.7%
residual activity (LIMK1 (human)): 65.3%
residual activity (BTK (human)): 64.7%
residual activity (CLK1 (human)): 102%
residual activity (PRKCZ (human)): 93.9%
residual activity (MAP3K7 TAB1 (human)): 90.6%
residual activity (TGFBR1 (human)): 95%
